Data as given in PMC9684079, “Pharmacological targeting of glutamatergic neurons within the brainstem for weight reduction” (Nature Metabolism, 2022).

Assays:
mouse Hcrtr1 = target: T1, mouse Hcrtr1 (Mus musculus, UniProt P58307); test: FLIPR Ca2+ flux, antagonism of orexin A response; format: cell-based
T1 construct: CHO-K1 cells expressing Gα16 and mouse Hcrtr1

Hcrtr2 = target: T2, Hcrtr2 (Homo sapiens, UniProt O43614); test: radioligand displacement of [3H]EMPA (weak; functional IC50 […]); format: binding
T2 construct: membranes from CHO-K1 cells stably expressing HCRTR2

[1] = target: T3, Hcrtr1 (orexin 1 receptor) (Homo sapiens, UniProt O43613); test: radioligand displacement of [3H]SB674042; also FLIPR Ca2+ antagonism in Chem-1 cells (IC50 […]); format: binding
T3 construct: membranes from CHO-K1 cells stably expressing HCRTR1

Adrenergic β1 = target: T4, Adrenergic β1 (Homo sapiens, UniProt P08588); test: biochemical; parameters: Cerep/Eurofins selectivity panel, receptors, channels and transporters, per cent inhibition at 10 uM; conditions: read-out: % Inhibition
T4 construct: gene ADRB1

Angiotensin AT2 = target: T5, Angiotensin AT2 (Homo sapiens, UniProt P50052); test: biochemical; parameters: Cerep/Eurofins selectivity panel, receptors, channels and transporters, per cent inhibition at 10 uM; conditions: read-out: % Inhibition
T5 construct: gene AGTR2

Bradykinin B1 = target: T6, Bradykinin B1 (Homo sapiens, UniProt P46663); test: biochemical; parameters: Cerep/Eurofins selectivity panel, receptors, channels and transporters, per cent inhibition at 10 uM; conditions: read-out: % Inhibition
T6 construct: gene BDKRB1

Bradykinin B2 = target: T7, Bradykinin B2 (Homo sapiens, UniProt P30411); test: biochemical; parameters: Cerep/Eurofins selectivity panel, receptors, channels and transporters, per cent inhibition at 10 uM; conditions: read-out: % Inhibition
T7 construct: gene BDKRB2

Dopamine D4.2 = target: T8, Dopamine D4.2 (Homo sapiens, UniProt P21917); test: biochemical; parameters: Cerep/Eurofins selectivity panel, receptors, channels and transporters, per cent inhibition at 10 uM; conditions: read-out: % Inhibition
T8 construct: gene DRD4; D4.2

GABAB1A = target: T9, GABAB1A (Homo sapiens, UniProt Q9UBS5); test: biochemical; parameters: Cerep/Eurofins selectivity panel, receptors, channels and transporters, per cent inhibition at 10 uM; conditions: read-out: % Inhibition
T9 construct: gene GABBR1; isoform 1A

Muscarinic M2 = target: T10, Muscarinic M2 (Homo sapiens, UniProt P08172); test: biochemical; parameters: Cerep/Eurofins selectivity panel, receptors, channels and transporters, per cent inhibition at 10 uM; conditions: read-out: % Inhibition
T10 construct: gene CHRM2

Muscarinic M3 = target: T11, Muscarinic M3 (Homo sapiens, UniProt P20309); test: biochemical; parameters: Cerep/Eurofins selectivity panel, receptors, channels and transporters, per cent inhibition at 10 uM; conditions: read-out: % Inhibition
T11 construct: gene CHRM3

Tachykinin NK2 = target: T12, Tachykinin NK2 (Homo sapiens, UniProt P21452); test: biochemical; parameters: Cerep/Eurofins selectivity panel, receptors, channels and transporters, per cent inhibition at 10 uM; conditions: read-out: % Inhibition
T12 construct: gene TACR2

[2] = target: T13, Transporter, Norepinephrine (NET) (Homo sapiens, UniProt P23975); test: biochemical; parameters: Cerep/Eurofins selectivity panel, receptors, channels and transporters, per cent inhibition at 10 uM; conditions: read-out: % Inhibition
T13 construct: gene SLC6A2

Vasopressin V1a = target: T14, Vasopressin V1a (Homo sapiens, UniProt P37288); test: biochemical; parameters: Cerep/Eurofins selectivity panel, receptors, channels and transporters, per cent inhibition at 10 uM; conditions: read-out: % Inhibition
T14 construct: gene AVPR1A

Vasopressin V1b = target: T15, Vasopressin V1b (Homo sapiens, UniProt P47901); test: biochemical; parameters: Cerep/Eurofins selectivity panel, receptors, channels and transporters, per cent inhibition at 10 uM; conditions: read-out: % Inhibition
T15 construct: gene AVPR1B

[3] = target: T16, Protein Serine/Threonine Kinase, ATK1 (PRKBA) (Homo sapiens, UniProt P31749); test: biochemical; parameters: Cerep/Eurofins selectivity panel, enzymes, per cent inhibition at 10 uM; conditions: read-out: % Inhibition
T16 construct: gene AKT1

[4] = target: T17, Nitric Oxide Synthase, neuronal (nNOS) (Rattus norvegicus, UniProt P29476); test: biochemical; parameters: Cerep/Eurofins selectivity panel, enzymes, per cent inhibition at 10 uM; conditions: read-out: % Inhibition
T17 construct: gene Nos1

[5] = target: Protein Serine/Threonine Kinase, CDC2/CCNB1 (CDK1/cyclinB) (Homo sapiens, UniProt P06493); test: biochemical; parameters: Cerep/Eurofins selectivity panel, enzymes, per cent inhibition at 10 uM; conditions: read-out: % Inhibition
Xanthine Oxidase = target: T18, Xanthine Oxidase (Bos taurus, UniProt P80457); test: biochemical; parameters: Cerep/Eurofins selectivity panel, enzymes, per cent inhibition at 10 uM; conditions: read-out: % Inhibition
T18 construct: gene XDH

[6] = target: T19, Peptidase, Matrix metalloprotease, neutral endopeptidase (Homo sapiens, UniProt P08473); test: biochemical; parameters: Cerep/Eurofins selectivity panel, enzymes, per cent inhibition at 10 uM; conditions: read-out: % Inhibition
T19 construct: gene MME

Phospholipase PLA2-I = target: T20, Phospholipase PLA2-I (Sus scrofa, UniProt P00592); test: biochemical; parameters: Cerep/Eurofins selectivity panel, enzymes, per cent inhibition at 10 uM; conditions: read-out: % Inhibition
T20 construct: gene PLA2G1B

[7] = target: T21, Peptidase, Tumor necrosis factorα Converting enzyme (TACE) (Homo sapiens, UniProt P78536); test: biochemical; parameters: Cerep/Eurofins selectivity panel, enzymes, per cent inhibition at 10 uM; conditions: read-out: % Inhibition
T21 construct: gene ADAM17

[8] = target: T22, Serotonin (5-Hydroxytryptamine) 5-HT4 (Cavia porcellus, UniProt O70528); test: biochemical; parameters: Cerep/Eurofins selectivity panel, receptors, channels and transporters, per cent inhibition at 10 uM; conditions: read-out: % Inhibition
T22 construct: gene HTR4

Androgen (Testosterone) = target: T23, Androgen (Testosterone) (Homo sapiens, UniProt P10275); test: biochemical; parameters: Cerep/Eurofins selectivity panel, receptors, channels and transporters, per cent inhibition at 10 uM; conditions: read-out: % Inhibition
T23 construct: gene AR

Anaphylatoxin C5a = target: T24, Anaphylatoxin C5a (Homo sapiens, UniProt P21730); test: biochemical; parameters: Cerep/Eurofins selectivity panel, receptors, channels and transporters, per cent inhibition at 10 uM; conditions: read-out: % Inhibition
T24 construct: gene C5AR1
T24 sequence (P21730 whole entry): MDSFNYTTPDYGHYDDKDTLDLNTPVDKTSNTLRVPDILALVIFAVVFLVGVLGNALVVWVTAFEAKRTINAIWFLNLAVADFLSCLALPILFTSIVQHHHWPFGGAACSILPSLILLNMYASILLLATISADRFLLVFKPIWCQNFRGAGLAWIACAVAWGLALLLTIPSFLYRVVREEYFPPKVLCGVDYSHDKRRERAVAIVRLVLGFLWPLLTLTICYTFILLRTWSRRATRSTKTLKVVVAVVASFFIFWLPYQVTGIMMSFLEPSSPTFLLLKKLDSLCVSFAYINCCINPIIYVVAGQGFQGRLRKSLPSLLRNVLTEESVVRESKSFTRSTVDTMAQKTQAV

T18 sequence (P80457 whole entry): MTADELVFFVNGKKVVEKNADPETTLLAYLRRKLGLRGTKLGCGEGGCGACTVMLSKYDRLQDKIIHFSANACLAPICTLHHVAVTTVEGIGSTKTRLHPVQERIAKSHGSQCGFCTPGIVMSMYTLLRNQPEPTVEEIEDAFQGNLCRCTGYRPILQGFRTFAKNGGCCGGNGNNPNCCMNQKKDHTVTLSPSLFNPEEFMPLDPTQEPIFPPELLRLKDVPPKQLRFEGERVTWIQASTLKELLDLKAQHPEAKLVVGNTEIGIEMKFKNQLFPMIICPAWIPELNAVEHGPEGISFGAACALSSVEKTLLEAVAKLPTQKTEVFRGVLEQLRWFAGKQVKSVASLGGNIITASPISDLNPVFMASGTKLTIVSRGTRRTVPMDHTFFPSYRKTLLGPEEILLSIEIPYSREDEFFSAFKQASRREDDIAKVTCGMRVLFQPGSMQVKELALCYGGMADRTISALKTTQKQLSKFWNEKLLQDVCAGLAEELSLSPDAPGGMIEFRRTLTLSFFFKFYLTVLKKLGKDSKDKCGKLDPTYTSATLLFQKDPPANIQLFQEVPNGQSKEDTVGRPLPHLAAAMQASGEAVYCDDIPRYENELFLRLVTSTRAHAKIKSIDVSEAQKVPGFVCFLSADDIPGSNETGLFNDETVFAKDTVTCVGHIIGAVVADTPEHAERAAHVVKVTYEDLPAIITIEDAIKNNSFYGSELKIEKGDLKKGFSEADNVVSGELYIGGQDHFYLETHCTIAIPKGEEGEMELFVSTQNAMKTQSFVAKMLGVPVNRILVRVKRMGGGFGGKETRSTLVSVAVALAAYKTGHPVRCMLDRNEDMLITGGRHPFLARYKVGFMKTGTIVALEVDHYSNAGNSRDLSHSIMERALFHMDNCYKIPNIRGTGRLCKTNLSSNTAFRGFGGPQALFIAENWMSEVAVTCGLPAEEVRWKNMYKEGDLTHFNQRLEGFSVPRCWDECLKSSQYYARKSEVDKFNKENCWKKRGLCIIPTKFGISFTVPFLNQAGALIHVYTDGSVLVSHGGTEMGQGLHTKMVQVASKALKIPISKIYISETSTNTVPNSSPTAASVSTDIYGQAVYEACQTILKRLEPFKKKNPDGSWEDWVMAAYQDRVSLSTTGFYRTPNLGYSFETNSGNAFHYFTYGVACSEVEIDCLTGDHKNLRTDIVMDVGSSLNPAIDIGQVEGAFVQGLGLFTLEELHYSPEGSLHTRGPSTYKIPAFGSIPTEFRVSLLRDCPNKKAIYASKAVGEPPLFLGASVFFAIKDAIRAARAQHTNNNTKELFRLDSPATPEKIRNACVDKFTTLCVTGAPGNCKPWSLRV
T17 sequence (P29476 whole entry): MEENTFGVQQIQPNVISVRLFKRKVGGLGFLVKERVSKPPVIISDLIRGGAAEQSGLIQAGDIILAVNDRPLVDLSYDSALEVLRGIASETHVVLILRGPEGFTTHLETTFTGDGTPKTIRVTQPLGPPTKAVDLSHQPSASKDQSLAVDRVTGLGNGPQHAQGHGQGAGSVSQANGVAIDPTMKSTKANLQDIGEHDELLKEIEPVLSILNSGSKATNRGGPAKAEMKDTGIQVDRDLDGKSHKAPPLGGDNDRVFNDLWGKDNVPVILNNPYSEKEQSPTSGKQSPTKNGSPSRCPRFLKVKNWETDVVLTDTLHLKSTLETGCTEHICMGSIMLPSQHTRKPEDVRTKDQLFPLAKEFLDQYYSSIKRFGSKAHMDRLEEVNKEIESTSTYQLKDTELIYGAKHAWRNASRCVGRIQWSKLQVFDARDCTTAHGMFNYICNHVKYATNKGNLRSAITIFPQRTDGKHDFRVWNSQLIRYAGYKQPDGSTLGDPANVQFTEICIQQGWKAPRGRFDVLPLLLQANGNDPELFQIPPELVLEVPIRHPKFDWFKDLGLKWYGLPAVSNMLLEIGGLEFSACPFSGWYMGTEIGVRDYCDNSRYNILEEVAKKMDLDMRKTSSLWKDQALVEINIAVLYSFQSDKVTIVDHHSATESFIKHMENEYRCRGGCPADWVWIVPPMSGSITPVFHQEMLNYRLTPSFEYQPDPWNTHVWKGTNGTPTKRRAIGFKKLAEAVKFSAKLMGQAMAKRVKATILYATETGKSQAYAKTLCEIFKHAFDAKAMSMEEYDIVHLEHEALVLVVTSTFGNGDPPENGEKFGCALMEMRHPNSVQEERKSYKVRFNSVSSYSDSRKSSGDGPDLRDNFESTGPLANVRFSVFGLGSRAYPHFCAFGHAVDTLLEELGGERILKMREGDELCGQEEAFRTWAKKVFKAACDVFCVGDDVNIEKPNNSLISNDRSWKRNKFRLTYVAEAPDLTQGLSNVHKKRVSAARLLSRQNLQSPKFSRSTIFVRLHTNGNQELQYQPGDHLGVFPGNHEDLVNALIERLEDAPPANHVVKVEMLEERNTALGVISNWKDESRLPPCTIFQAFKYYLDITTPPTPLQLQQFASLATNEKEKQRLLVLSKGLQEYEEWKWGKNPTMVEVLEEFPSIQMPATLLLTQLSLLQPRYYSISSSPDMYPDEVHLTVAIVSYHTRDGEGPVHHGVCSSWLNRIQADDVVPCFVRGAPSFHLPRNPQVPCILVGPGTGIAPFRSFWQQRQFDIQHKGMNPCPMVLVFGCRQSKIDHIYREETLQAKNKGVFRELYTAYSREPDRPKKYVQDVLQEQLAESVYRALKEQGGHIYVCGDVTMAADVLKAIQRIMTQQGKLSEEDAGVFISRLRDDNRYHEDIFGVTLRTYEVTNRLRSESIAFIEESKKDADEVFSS
T14 sequence (P37288 whole entry): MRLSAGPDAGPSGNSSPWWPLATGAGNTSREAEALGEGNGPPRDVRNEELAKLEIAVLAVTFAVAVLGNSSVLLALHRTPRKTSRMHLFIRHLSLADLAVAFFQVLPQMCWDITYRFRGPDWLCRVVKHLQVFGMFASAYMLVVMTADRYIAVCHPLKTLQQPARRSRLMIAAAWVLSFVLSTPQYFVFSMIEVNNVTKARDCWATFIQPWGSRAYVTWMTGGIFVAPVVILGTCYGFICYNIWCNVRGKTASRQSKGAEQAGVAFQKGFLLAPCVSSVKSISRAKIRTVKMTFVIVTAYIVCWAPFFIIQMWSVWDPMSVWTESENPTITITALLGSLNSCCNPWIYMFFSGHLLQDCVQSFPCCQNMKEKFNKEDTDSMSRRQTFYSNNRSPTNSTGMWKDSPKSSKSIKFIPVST
T8 sequence (P21917 whole entry): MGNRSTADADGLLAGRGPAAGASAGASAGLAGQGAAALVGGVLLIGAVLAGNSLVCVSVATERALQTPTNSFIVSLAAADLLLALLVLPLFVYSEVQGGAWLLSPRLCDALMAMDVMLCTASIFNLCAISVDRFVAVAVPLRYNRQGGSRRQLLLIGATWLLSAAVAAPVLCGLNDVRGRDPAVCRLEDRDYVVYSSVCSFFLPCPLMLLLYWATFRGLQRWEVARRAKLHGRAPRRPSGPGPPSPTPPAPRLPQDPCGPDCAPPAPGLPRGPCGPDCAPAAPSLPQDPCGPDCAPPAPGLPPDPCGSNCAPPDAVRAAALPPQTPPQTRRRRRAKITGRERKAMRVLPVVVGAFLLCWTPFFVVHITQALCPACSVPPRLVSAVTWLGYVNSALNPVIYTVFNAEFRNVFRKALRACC
T16 sequence (P31749 whole entry): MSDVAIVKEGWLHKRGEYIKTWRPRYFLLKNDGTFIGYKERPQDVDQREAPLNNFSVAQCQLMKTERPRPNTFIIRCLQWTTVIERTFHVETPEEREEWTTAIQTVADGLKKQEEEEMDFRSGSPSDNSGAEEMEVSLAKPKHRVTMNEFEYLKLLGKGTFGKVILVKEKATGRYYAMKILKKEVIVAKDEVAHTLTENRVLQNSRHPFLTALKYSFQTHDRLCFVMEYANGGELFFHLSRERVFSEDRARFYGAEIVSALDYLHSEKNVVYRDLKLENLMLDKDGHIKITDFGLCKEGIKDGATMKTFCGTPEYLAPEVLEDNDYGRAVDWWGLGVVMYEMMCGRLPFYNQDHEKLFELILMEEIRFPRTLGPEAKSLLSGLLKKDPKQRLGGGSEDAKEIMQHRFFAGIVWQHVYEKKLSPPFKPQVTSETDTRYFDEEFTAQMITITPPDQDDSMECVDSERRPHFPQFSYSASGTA
T13 sequence (P23975 whole entry): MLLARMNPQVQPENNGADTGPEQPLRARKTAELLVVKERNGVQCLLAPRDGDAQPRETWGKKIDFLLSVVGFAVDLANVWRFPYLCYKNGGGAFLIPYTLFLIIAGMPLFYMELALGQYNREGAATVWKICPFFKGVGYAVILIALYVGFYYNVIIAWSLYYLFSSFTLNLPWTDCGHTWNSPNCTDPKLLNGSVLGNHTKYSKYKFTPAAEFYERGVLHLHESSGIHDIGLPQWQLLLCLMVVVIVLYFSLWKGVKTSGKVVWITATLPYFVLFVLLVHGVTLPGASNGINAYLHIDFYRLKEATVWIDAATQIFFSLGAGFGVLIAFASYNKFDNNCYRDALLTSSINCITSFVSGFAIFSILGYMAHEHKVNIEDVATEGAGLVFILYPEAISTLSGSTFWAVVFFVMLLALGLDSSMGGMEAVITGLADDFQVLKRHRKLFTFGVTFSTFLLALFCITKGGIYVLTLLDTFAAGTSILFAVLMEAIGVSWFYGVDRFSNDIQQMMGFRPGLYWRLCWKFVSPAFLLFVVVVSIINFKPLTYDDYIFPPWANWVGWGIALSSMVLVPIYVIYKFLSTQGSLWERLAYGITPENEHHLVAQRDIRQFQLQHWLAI

C[C@]1(Nc2cnc(C(F)(F)F)cn2)CCC[C@@H]1NC(=O)c1ncccc1-n1nccn1 [CVN45502]
IC50 (mouse Hcrtr1): 18 nM | Ki (Hcrtr2): 4.66 pKi | Ki [1]: 13.8 nM | inhibition at 10 µM (Adrenergic β1): -14% | inhibition at 10 µM (Angiotensin AT2): 5% | inhibition at 10 µM (Bradykinin B1): 4% | inhibition at 10 µM (Bradykinin B2): -18% | inhibition at 10 µM (Dopamine D4.2): -9% | inhibition at 10 µM (GABAB1A): -8% | inhibition at 10 µM (Muscarinic M2): -7% | inhibition at 10 µM (Muscarinic M3): -1% | inhibition at 10 µM (Tachykinin NK2): -8% | inhibition at 10 µM [2]: -6% | inhibition at 10 µM (Vasopressin V1a): -14% | inhibition at 10 µM (Vasopressin V1b): -8% | inhibition at 10 µM [3]: -7% | inhibition at 10 µM [4]: 22% | inhibition at 10 µM [5]: 14% | inhibition at 10 µM (Xanthine Oxidase): 16% | inhibition at 10 µM [6]: 4% | inhibition at 10 µM (Phospholipase PLA2-I): 10% | inhibition at 10 µM [7]: 2% | inhibition at 10 µM [8]: -4% | inhibition at 10 µM (Androgen (Testosterone)): -5% | inhibition at 10 µM (Anaphylatoxin C5a): 6%
